Test results reported in patent publication US20190365771A1, “APILIMOD COMPOSITIONS AND METHODS FOR USING SAME IN THE TREATMENT OF ALZHEIMER'S DISEASE” (AI Therapeutics, Inc., priority 2016, published 2019).

Legend:
[1] = tested on: Hela cells transiently transfected with C99 APP truncated mutant (C99); experiment: Ab 40 ELISA of supernatants of Hela cells transfected with C99 construct; format: cell-based, human; details: treated two days with 10000, 1000, 100, 1 nM, FIG. 2
Source text: (§1) The Amyloid precursor protein (APP) can be processed by proteases, first by beta secretase (BACE1) then followed by gamma secretase to generate peptide fragments including sizes of 40 and 42 amino acids named abeta (Ab), e.g. Ab 1-40 and Ab 1-42. Several familial Alzheimer disease-related mutations and truncated mutants in the APP gene have been described in the investigation of APP processing to Ab in vitro and in vivo. […] Briefly, two constructs were used to generate Ab:(1) APP Swedish/Indiana double mutant (APPSw-I) in the 695 amino acid APP construct combines the Swedish mutant APP K670N, M671L (Mullan M et al, A pathogenic mutation for probable Alzheimer's disease in the APP gene at the N-terminus of beta-amyloid. Nat Genet., 1992 August; 1(5):345-7) and the Indiana mutation APP V717F (Suzuki N et al, An increased percentage of long amyloid beta protein secreted by familial amyloid beta protein precursor (beta APP717) mutants. Science, 1994 May 27; 264(5163): 1336-40); and (2) C99 APP truncated mutant (C99) fragment encoding the last 99-aa of APP 695, this construct mimics the BACE1 cleaved APP at the major Asp+1 site of Aβ to generate C99. […]

[2] = tested on: Hela cells transiently transfected with APP Swedish/Indiana double mutant (APPSw-I); experiment: Ab 40 ELISA of supernatants of Hela cells transfected with APPSw-I construct; format: cell-based, human; details: treated two days with 10000, 1000, 100, 1 nM, FIG. 1
Source text: as §1

Cc1cccc(/C=N/Nc2cc(N3CCOCC3)nc(OCCc3ccccn3)n2)c1 [apilimod]
Ab concentration in cell culture supernatant [1]: dose dependent decrease of Ab
Ab concentration in cell culture supernatant [2]: dose dependent decrease of Ab
